In patent US20040001818A1, “Methods of inhibiting angiogenesis using NADPH oxidase inhibitors” (priority 2000, published 2004):
Starred links: 1 amine or outer side, 2 acyl side, 3 side chain; linkers in the order of their positions; H or OH if unused. Positions of bridges follow the written chain, without caps; N, C: chain ends. Non-standard residues stand in square brackets, D forms with d. Residues, ends and D or L forms follow the SMILES beside them. Chains are numbered I, II in the order given. Actinocin(9to1) = Cc1c2oc3c(C)ccc(C(=O)[*:1])c3nc-2c(C(=O)[*:2])c(N)c1=O; NMeV = CN[C@H](C(=O)O)C(C)C; Sar = CNCC(=O)O

Tests used:
[1] = system: MnSOD mRNA; assay: Northern blot of MnSOD mRNA in HCAECs; type: cell-based, human; details: for VEGF stimulation of MnSOD: HCAEC pre-incubated with 1 μM GF-109203X, 50 μM PD98059 or 20 μM SB 203580; for VEGF-mediated induction of MnSOD: serum-starved HCAECs, VEGF 50 ng/ml, four hours, DPI 5, 25, 100 μM, apocynin 0.3, 2, 5 mM, allopurinol 0.1, 0.5 mM
Method: Cell culture. Human coronary artery endothelial cells (HCAECs) (Clonetics Corporation, San Diego, Calif., USA) and human pulmonary artery endothelial cells (HPAECs) were grown in Endothelial Growth Medium-2-MV (EGM-2-MV) BulletKit (Clonetics Corporation, San Diego, Calif., USA). At 80-90% confluence, the cells were serum-starved in DMEM containing 0.5% FBS for 24 hours and subsequently treated with VEGF-supplemented medium for the times indicated. Human recombinant VEGF was purchased from PeproTech, Inc. (Rocky Hill, N.J., USA). […] In other studies, the serum-starved cells were pretreated with the MEK inhibitor PD98059 at a final concentration of 50 μM or a specific PKC inhibitor bisindolylmaleimide I (BIM; CalBiochem, San Diego, Calif., USA) at a final concentration of 5 μM for 30 minutes prior to addition of growth factors. An equal amount of DMSO was added to the control plates. Northern blot analyses. Ten micrograms total RNA was loaded on a 0.7% formaldehyde-containing agarose gel. The RNA was transferred to nylon membrane, covalently cross-linked with UV radiation, prehybridized for 6 hours, and hybridized for 18 hours at 42° C. with a [^32P]dCTP-labeled cDNA probe containing MnSOD or eNOS cDNA sequence. The membranes were subsequently stripped and probed with a radiolabeled 18S-ribosome probe. For actinomycin D experiments, HCAEC cells were pretreated with 10 μg/ml actinomycin D (Sigma Chemical Company, St. Louis, Mo., USA) for 30 minutes before addition of VEGF and were harvested for total RNA one hour later.
To determine whether VEGF induced expression of MnSOD in primary endothelial cell cultures, HCAECs and HPAECs were serum starved for 24 hours, treated with 40 ng/ml VEGF for 0, 0.5, 1, 2, 4, 12 and 24 hours, and then harvested for total RNA. Northern blots were performed and probed for human MnSOD. […] The membranes were then stripped and reprobed for eNOS.
To determine whether the response of MnSOD to VEGF was mediated by ROS, HCAECs were serum starved and then treated with VEGF in the absence or presence of inhibitors of NADPH oxidase (DPI, apocynin), xanthine oxidase (allopurinol) and nitric oxide synthase (L-NAME).

[2] = system: ROS; assay: ROS generation: DCF oxidation by flow cytometry in DCFDA-labeled HCAECs; type: cell-based, human; details: relative to basal rate of control cells
Method: Western blot analyses. Whole cell protein extracts were prepared from serum-starved HCAECs and HPAECs one hour following addition of growth factor-supplemented or mock-treated media. Cells were washed twice with cold phosphate-buffered saline, harvested with a cell scraper, and lysed in ice-cold lysis buffer containing 20 mM HEPES, pH 7.5, 150 mM NaCl, 1% NP-40, 0.1% SDS, 1 mM EDTA, 1 mM DTT, 0.5 mM phenylmethylsulfonyl fluoride (PMSF), and the protease inhibitor cocktail (Boehringer Mannheim, Mannheim, Germany) for one hour. The resulting lysates were centrifuged at 10,000× g for 20 minutes and the supernatants were saved as whole cell protein extracts. Forty micrograms of protein were separated by 10% SDS-PAGE and electrotransferred to nitrocellulose membranes. Membranes were blocked with 5% nonfat dry milk in Tris-buffered saline with 0.1% Tween 20 for one hour at room temperature. The blot was incubated with primary rabbit polyclonal anti-MnSOD IgG (1:1000 dilution) (Santa Cruz Biotechnology Inc., Santa Cruz, Calif., USA) overnight at 4° C., followed by secondary antibody goat-anti-rabbit horseradish peroxidase conjugate (1:1000 dilution) (Pierce, Rockford, Ill., USA). The blot was washed extensively between each incubation step. Peroxidase activity was visualized with an enhanced chemiluminescense substrate system (Amersham, Arlington Heights, Ill., USA). Membranes were stripped and probed for eNOS and β-actin. Flow cytometry. Endothelial cells were labeled with DCFDA and oxidation of DCF was measured by flow cytometry.
To test whether VEGF increases ROS production in endothelial cells, HCAECs were labeled with […] DCFDA and oxidation of DCF was measured by flow cytometry. […] PMS is known to induce free oxygen radicals.

[3] = system: human coronary artery endothelial cells (HCAECs); assay: VEGF-induced chemotaxis of HCAECs, Boyden chamber assay; type: cell-based; details: for inhibition of migration, dose dependence: VEGF 50 ng/ml, DPI 0.5, 1.0, 5.0, 10 μM, AEBSF 5, 50, 100, 250 μM
Method: The capacity of NADPH oxidase inhibitors to block migration of human coronary artery endothelial cells was tested. In these studies, VEGF-induced chemotaxis was tested with the Boyden chamber assay. Human coronary artery endothelial cells were serum starved in 0.5% FBS overnight. 25,000 cells were seeded into the upper chamber in the absence or presence of DPI, while media containing 0.5% FBS and 40 ng/ml was placed into the lower chamber. The chamber was incubated for 4 hours at 37° C., at which time the polycarbonate filters were harvested and counted for migrating cells. The results are shown in FIG. 14, which is a histogram showing the migration in terms of cell count (y-axis) of human coronary artery endothelial cells in a Boyden chamber. The cells were serum starved in 0.5% FBS and treated with either VEGF, DPI or VEGF+DPI (x-axis).
The effect of AEBSF on VEGF-induced migration was also studied. HCAECs were treated as above and treated by either VEGF, VEGF+100 μM allopurinol, or VEGF+250 μM AEBSF. The results are shown in FIG. 15, which is a histogram showing migration in terms of cell count (y-axis) when treated (x-axis). The NADPH oxidase inhibitor AEBSF abrograted the VEGF-mediated chemotaxis of HCAECs.
These are histograms showing VEGF-mediated chemotaxis in control HCAECs (“C”), or HCAECs treated with 50 ng/ml VEGF in the absence or presence of increasing doses of DPI (0.5, 1.0, 5.0 or 10 μM; FIG. 16A) or AEBSF (5, 50, 100 or 250 μM; FIG. 16B).

[4] = system: human coronary artery endothelial cells (HCAECs); assay: [3H]-thymidine incorporation in HCAECs; type: cell-based; details: for thymidine incorporation: HCAECs grown in 10% FBS
Method: To determine whether the effect of serum or VEGF on endothelial cell proliferation might also be dependent upon ambient levels of ROS, HCAECs were grown to confluence, split into 24 wells, serum starved for eight hours and then incubated in the absence or presence of VEGF for 16 or 24 hours. All wells received 1 μCi of [^3H]-thymidine at the time of treatment. After 16 or 24 hours, medium was removed, and the wells were washed 3 times with PBS. Radioactivity was extracted and thymidine incorporation measured using a scintillation counter.

[5] = system: mouse embryonic fibroblasts; assay: [3H]-thymidine incorporation in primary murine embryonic fibroblasts; type: cell-based; details: 10% FBS, 16 hours
Method: To determine whether the effect of NADPH oxidase inhibition was specific to endothelial cells, the effect of the various inhibitors on thymidine incorporation in primary murine embryonic fibroblasts was tested. The results are shown in FIG. 13, which is a histogram showing thymidine incorporation (y-axis) in mouse embryonic fibroblasts that have been grown in 0.5% FBS or 10% FBS in the absence (10% FBS) or presence of inhibitors (Apo=apocynin; allo=allopurinol; L-NAME) for 16 hours.

[6] = serum starved (0.5% FBS) and VEGF-treated HCAECs, 16 or 24 hours

SMILES: COc1cccc(-c2cc(=O)c3ccccc3o2)c1N [PD98059]
- VEGF stimulation of MnSOD [1]: not

SMILES: c1ccc2c(c1)[I+]c1ccccc1-2 [DPI, diphenyleneiodonium]
- DCF oxidation (ROS production) [2]: significantly inhibited
- migration (cell count) ([3]; 25 μM DPI, VEGF in lower chamber, 4 hours): profound inhibition
- inhibition of migration, dose dependence [3]: dose-dependent
- VEGF-mediated induction of MnSOD [1]: inhibited
- DPI concentration inhibiting serum-induced thymidine incorporation ([4]; HCAECs in 5.0% FBS, doses 1, 5, 25, 40, 80 μM): ≤ 1 µM
- thymidine uptake [4, 6]: profound inhibition

SMILES: COc1cc(C(C)=O)ccc1O [apocynin]
- thymidine incorporation [5]: failed to reduce incorporation below baseline
- VEGF-mediated induction of MnSOD [1]: inhibited
- serum-induced thymidine incorporation ([4]; HCAECs, 5.0% FBS, apocynin 300 μM, 500 μM, 1 mM, 2 mM, 3 mM): dose-dependent inhibition

SMILES: COS(=O)(=O)[O-].C[n+]1c2ccccc2nc2ccccc21 [PMS]
- DCF oxidation (ROS production) [2]: increased ROS production

SMILES: NCCc1ccc(S(=O)(=O)F)cc1 [AEBSF, 4-(2-aminoethyl)-benzenesulfonyl fluoride]
- inhibition of migration, dose dependence [3]: dose-dependent
- VEGF-mediated chemotaxis ([3]; VEGF + 250 μM AEBSF): abrograted
- VEGF-mediated induction of MnSOD mRNA ([1]; pretreatment with the inhibitor, concentration not given): inhibited
- thymidine uptake ([4]; HCAECs, 5% FBS, AEBSF 5, 50, 100, 500 μM): inhibited

SMILES: CN(C)CCCn1cc(C2=C(c3c[nH]c4ccccc34)C(=O)NC2=O)c2ccccc21 [BIM, bisindolylmaleimide I]
- VEGF-mediated induction of MnSOD mRNA ([1]; preincubation, BIM 0.1, 1, 5 μM, PD98059 5, 20, 100 μM): inhibited

SMILES: CCCCCCCCCCCCCC(=O)O[C@@H]1[C@@H](C)[C@@]2(O)[C@@H](C=C(CO)C[C@]3(O)C(=O)C(C)=C[C@@H]23)[C@@H]2C(C)(C)[C@]12OC(C)=O [PMA]
- DCF oxidation (ROS production) [2]: significantly increased

SMILES: Oc1ncnc2[nH]ncc12 [allopurinol]
- DCF oxidation (ROS production) [2]: no effect
- thymidine incorporation [4]: no effect

SMILES: C[S+]([O-])c1ccc(-c2nc(-c3ccncc3)c(-c3ccc(F)cc3)[nH]2)cc1 (stereo not shown) [SB 203580]
- VEGF stimulation of MnSOD [1]: not

SMILES: Cc1c2oc3c(C)ccc(C(=O)N[C@@H]4C(=O)N[C@H](C(C)C)C(=O)N5CCC[C@H]5C(=O)N(C)CC(=O)N(C)[C@@H](C(C)C)C(=O)O[C@@H]4C)c3nc-2c(C(=O)N[C@@H]2C(=O)N[C@H](C(C)C)C(=O)N3CCC[C@H]3C(=O)N(C)CC(=O)N(C)[C@@H](C(C)C)C(=O)O[C@@H]2C)c(N)c1=O [Actinomycin D, actinomycin D] (I: T[dV]P[Sar][NMeV] / II: T[dV]P[Sar][NMeV]; ester I:1-I:C, II:1-II:C; linker I:N-II:N via Actinocin(9to1))
- VEGF-mediated induction of MnSOD mRNA ([1]; HCAEC, 10 μg/ml actinomycin D for 30 minutes before 60 minute incubation with VEGF): completely abolished

SMILES: O=C1c2ccccc2Cc2ccccc21 [anthrone]
- thymidine uptake [4, 6]: profound inhibition

SMILES: COC(=O)[C@@H](N)CCCNC(=N)N[N+](=O)[O-] [L-NAME]
- DCF oxidation (ROS production) [2]: no effect
- thymidine incorporation [4]: no effect

SMILES: CN(C)CCCn1cc(C2=C(c3c[nH]c4ccccc34)C(=O)NC2=O)c2ccccc21 [GF-109203X]
- VEGF stimulation of MnSOD [1]: significantly reduced
